Laboratory results taken from US20210317134A1, “UBIQUITIN-SPECIFIC-PROCESSING PROTEASE 7 (USP7) MODULATORS AND USES THEREOF” (RAPT THERAPEUTICS, INC., priority 2019, published 2021).

target: USP7 (Homo sapiens, UniProt Q93009); test: USP7 inhibitory potency (Table 1); assay type: biochemical
Sequence (Q93009 whole entry): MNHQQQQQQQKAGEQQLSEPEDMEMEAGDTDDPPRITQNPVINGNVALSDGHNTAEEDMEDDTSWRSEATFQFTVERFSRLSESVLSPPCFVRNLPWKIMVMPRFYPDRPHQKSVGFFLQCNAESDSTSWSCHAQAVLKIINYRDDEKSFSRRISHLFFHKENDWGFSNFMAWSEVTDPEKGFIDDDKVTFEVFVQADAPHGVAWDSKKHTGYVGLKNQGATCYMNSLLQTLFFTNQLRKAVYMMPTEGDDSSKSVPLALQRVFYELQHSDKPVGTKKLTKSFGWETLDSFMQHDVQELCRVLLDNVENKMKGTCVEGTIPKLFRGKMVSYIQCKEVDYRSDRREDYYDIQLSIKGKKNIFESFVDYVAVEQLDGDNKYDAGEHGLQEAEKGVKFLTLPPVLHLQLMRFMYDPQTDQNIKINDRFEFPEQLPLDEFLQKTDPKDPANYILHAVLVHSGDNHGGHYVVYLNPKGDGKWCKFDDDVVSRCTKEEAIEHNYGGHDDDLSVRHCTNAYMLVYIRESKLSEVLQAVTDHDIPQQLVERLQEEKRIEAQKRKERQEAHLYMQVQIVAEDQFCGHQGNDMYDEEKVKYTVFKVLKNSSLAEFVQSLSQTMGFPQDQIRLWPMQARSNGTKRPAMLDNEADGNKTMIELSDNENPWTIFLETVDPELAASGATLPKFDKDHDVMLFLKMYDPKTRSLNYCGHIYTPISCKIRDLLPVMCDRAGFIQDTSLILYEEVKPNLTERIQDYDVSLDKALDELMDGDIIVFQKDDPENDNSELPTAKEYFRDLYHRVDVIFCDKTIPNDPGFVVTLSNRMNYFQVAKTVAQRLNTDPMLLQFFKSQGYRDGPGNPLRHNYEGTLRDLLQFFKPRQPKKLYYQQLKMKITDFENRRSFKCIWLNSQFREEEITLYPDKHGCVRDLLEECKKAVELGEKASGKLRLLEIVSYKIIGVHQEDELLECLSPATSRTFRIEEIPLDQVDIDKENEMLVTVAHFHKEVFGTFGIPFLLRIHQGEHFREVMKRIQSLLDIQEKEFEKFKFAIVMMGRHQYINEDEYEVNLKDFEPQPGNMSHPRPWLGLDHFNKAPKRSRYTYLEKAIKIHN

Row | Compound | IC50 [µM]
1 | O=C([C@H]1Cc2cc(Cl)cc(-c3ccnc4cc(C5(O)COC5)sc34)c2O1)N1CCNCC1 [(R)-(5-chloro-7-(2-(3-hydroxyoxetan-3-yl)thieno[3,2-b]pyridin-7-yl)-2,3-dihydrobenzofuran-2-yl)(piperazin-1-yl)methanone] | < 1
2 | O=C([C@H]1Cc2cc(Cl)cc(-c3ccnc4cc(CN5CCCCS5(=O)=O)sc34)c2O1)N1CCNCC1 [(R)-(5-chloro-7-(2-((1,1-dioxido-1,2-thiazinan-2-yl)methyl)thieno[3,2-b]pyridin-7-yl)-2,3-dihydrobenzofuran-2-yl)(piperazin-1-yl)methanone] | < 1
3 | O=C([C@H]1Cc2cc(Cl)cc(-c3ccnc4cc(CO)oc34)c2O1)N1CCNCC1 [(R)-(5-chloro-7-(2-(hydroxymethyl)furo[3,2-b]pyridin-7-yl)-2,3-dihydrobenzofuran-2-yl)(piperazin-1-yl)methanone] | < 1
4 | O=C([C@H]1Cc2cc(Cl)cc(-c3ccnc4cc(CO)sc34)c2O1)N1CCn2nc(C(F)(F)F)nc2C1 [(R)-(5-chloro-7-(2-(hydroxymethyl)thieno[3,2-b]pyridin-7-yl)-2,3-dihydrobenzofuran-2-yl)(2-(trifluoromethyl)-5,6-dihydro-[1,2,4]triazolo[1,5-a]pyrazin-7(8H)-yl)methanone] | 1 to 10
5 | CN(C)C1CN(C(=O)[C@H]2Cc3cc(Cl)cc(-c4ccnc5cc(CO)sc45)c3O2)C1 [(R)-(5-chloro-7-(2-(hydroxymethyl)thieno[3,2-b]pyridin-7-yl)-2,3-dihydrobenzofuran-2-yl)(3-(dimethylamino)azetidin-1-yl)methanone] | < 1
6 | O=C([C@H]1Cc2cc(Cl)cc(-c3ccnc4cc(CO)sc34)c2O1)N1CCn2c(nnc2C(F)(F)F)C1 [(R)-(5-chloro-7-(2-(hydroxymethyl)thieno[3,2-b]pyridin-7-yl)-2,3-dihydrobenzofuran-2-yl)(3-(trifluoromethyl)-5,6-dihydro-[1,2,4]triazolo[4,3-a]pyrazin-7(8H)-yl)methanone] | 1 to 10
7 | Cc1nnc2n1CCN(C(=O)[C@H]1Cc3cc(Cl)cc(-c4ccnc5cc(CO)sc45)c3O1)C2 [(R)-(5-chloro-7-(2-(hydroxymethyl)thieno[3,2-b]pyridin-7-yl)-2,3-dihydrobenzofuran-2-yl)(3-methyl-5,6-dihydro-[1,2,4]triazolo[4,3-a]pyrazin-7(8H)-yl)methanone] | 1 to 10
8 | CN(C)C1CCN(C(=O)[C@H]2Cc3cc(Cl)cc(-c4ccnc5cc(CO)sc45)c3O2)CC1 [(R)-(5-chloro-7-(2-(hydroxymethyl)thieno[3,2-b]pyridin-7-yl)-2,3-dihydrobenzofuran-2-yl)(4-(dimethylamino)piperidin-1-yl)methanone] | < 1
9 | CNC1CCN(C(=O)[C@H]2Cc3cc(Cl)cc(-c4ccnc5cc(CO)sc45)c3O2)CC1 [(R)-(5-chloro-7-(2-(hydroxymethyl)thieno[3,2-b]pyridin-7-yl)-2,3-dihydrobenzofuran-2-yl)(4-(methylamino)piperidin-1-yl)methanone] | < 1
10 | O=C([C@H]1Cc2cc(Cl)cc(-c3ccnc4cc(CO)sc34)c2O1)N1CCC(N2CCCC2)CC1 [(R)-(5-chloro-7-(2-(hydroxymethyl)thieno[3,2-b]pyridin-7-yl)-2,3-dihydrobenzofuran-2-yl)(4-(pyrrolidin-1-yl)piperidin-1-yl)methanone] | < 1
11 | O=C([C@H]1Cc2cc(Cl)cc(-c3ccnc4cc(CO)sc34)c2O1)N1CCn2cnnc2C1 [(R)-(5-chloro-7-(2-(hydroxymethyl)thieno[3,2-b]pyridin-7-yl)-2,3-dihydrobenzofuran-2-yl)(5,6-dihydro-[1,2,4]triazolo[4,3-a]pyrazin-7(8H)-yl)methanone] | 1 to 10
12 | O=C([C@H]1Cc2cc(Cl)cc(-c3ccnc4cc(CO)sc34)c2O1)N1CCn2ccnc2C1 [(R)-(5-chloro-7-(2-(hydroxymethyl)thieno[3,2-b]pyridin-7-yl)-2,3-dihydrobenzofuran-2-yl)(5,6-dihydroimidazo[1,2-a]pyrazin-7(8H)-yl)methanone] | < 1
